{"source": "patent US20020164346A1", "about": "“Altered peptide ligands” (priority 2001, published 2002)", "tested_on": "normal donor HLA-A2+ T cells", "experiment": "In vitro T cell education with peptide-pulsed autologous dendritic cells; lysis of 51Cr-labeled peptide-pulsed T2 cells", "assay_type": "cell-based, human", "excerpt": "Normal donor aphoresis products were obtained from Dana-Farber Cancer Research Institute (Boston, Mass.). PBMC were isolated by centrifugation over Ficoll (Nycomed, Oslo, Norway). CD8^+ T cells were isolated using magnetic beads (Dynal, Oslo, Norway) according to the manufacturers instructions. To generate autologous dendritic cells, monocytes were isolated from the PBMC and treated with GM-CSF (Immunex, Seattle, Wash.) and IL-4 (PeproTech, London, England) for 6 days as previously described. One day prior to establishing the T cell/DC cocultures, the DCs were pulsed with peptides (10 μg/ml) overnight followed by the addition of the previously isolated CD8+ T cells at a T:DC of 10:1. Cultures were restimulated with peptide-pulsed DCs. IL-2 (50 IU/ml) was introduced on day 8 and added every 3-4 days as needed. The bulk cultures were assayed one week after the fifth restimulation. Peptide-pulsed T2 cell targets were prepared as described above and adenovirus-infected target cells were allowed to incubate with the viruses for 48 hours at the indicated MOI prior to being used in the CTL assay. […]\nAltered peptides give rise to T cells that recognize the native epitope. […] All data points represent the average of 4 replicates and background lysis, as determined using T2 cells pulsed with equivalent amounts of DMSO containing no peptide, was subtracted out.", "data": [{"substance": "native gp100 peptide ligand: native (wild-type) gp100209-217 peptide epitope of the human melanoma antigen gp100", "values": [{"measurement": "ability of peptide-educated T cells to lyse targets displaying the native antigen/ligand", "setting": "T cells from normal (healthy) donors educated with the peptide", "result": "generally inefficient"}, {"measurement": "eliciting reactive T cells (lysis of T2 cells pulsed with native peptide)", "setting": "after 5 weekly stimulations, bulk T cell cultures, FIG. 3", "result": "relatively poor"}]}]}
